Values quoted from earlier work in patent publication US9937166B2 (INFLAMMATORY RESPONSE RESEARCH, INC., priority 2013, dated 2018).
Like-named read-outs stand apart in the source and are kept apart here.

Assays:
ALI/ARDS = settings: in vivo
[1] = for Time to reach steady state level: administered orally
[2] = not given; remark: listed apart in the source
[3] = system: IL-4, IL-6, IL-8, ICAM-1, TLR3, NF-kappa B
[4] = system: histamine induced wheal and flare
[5] = in vivo
H1 receptor = H1 receptor (Homo sapiens, UniProt P35367); settings: acidic pH, inflamed tissue
influenza = settings: in vivo

Sequence of H1 receptor (P35367 whole entry): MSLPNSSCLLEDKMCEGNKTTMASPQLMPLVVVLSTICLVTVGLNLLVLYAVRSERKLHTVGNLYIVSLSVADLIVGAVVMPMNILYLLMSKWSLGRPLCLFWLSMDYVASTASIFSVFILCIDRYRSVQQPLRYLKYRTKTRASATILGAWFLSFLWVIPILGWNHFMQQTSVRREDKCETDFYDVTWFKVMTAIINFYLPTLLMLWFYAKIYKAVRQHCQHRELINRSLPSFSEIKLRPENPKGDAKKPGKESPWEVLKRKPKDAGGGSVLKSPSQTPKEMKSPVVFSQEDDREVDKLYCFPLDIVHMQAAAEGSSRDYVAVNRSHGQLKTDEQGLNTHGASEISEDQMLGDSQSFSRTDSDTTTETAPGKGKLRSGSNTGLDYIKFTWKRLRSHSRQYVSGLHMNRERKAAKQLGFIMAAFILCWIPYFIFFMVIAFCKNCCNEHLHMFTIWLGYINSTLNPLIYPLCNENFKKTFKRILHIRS

For CC(=O)N1CCN(c2ccc(OCC3COC(Cn4ccnc4)(c4ccc(Cl)cc4Cl)O3)cc2)CC1 (centres unmarked) [ketoconazole], the “Outcome in large trials for ALI/ARDS” value (ALI/ARDS) is listed as “failed”.
For O=C1N[C@H](C(=O)O)CS1 [procysteine], the “Outcome in large trials for ALI/ARDS” value (ALI/ARDS) is given as “failed”.
For CC(C)(O)c1ccccc1CC[C@@H](SCC1(CC(=O)O)CC1)c1cccc(/C=C/c2ccc3ccc(Cl)cc3n2)c1 [montelukast], the “Plasma concentration area under the curve profile, IV vs oral tablet” value ([1]; IV 7 mg vs approved 10 mg oral tablet) is given as “comparable”, the “Time to reach steady state level” value [1] is given as “two” and the “Time to reach steady state level” value ([1]; listed as Montelukast) is given as “less than two”. The Absorption ([1]; in vivo) was “rapidly absorbed”, the “Linear pharmacokinetics to dose” value ([1]; in vivo) was no more than 50 mg and the “Time to peak plasma concentration” value ([1]; in vivo) was 3 to 4 h. For the same compound, the “Effect of a standard meal on oral bioavailability and C.” value ([1]; standard meal) was “not affected”, the “Doses without clinically important adverse experiences” value (adult patients for 22 weeks) was “up to 200 mg/day” and the “Doses without clinically important adverse experiences” value (short-term studies, approximately one week) was “up to 900 mg/day”.
In the case of C[C@@H](O)CCCCn1c(=O)c2c(ncn2C)n(C)c1=O [lisofylline], the “Outcome in large trials for ALI/ARDS” value (ALI/ARDS) is listed as “failed”.
For CCCCC[C@H](O)/C=C/[C@H]1[C@H](O)CC(=O)[C@@H]1CCCCCCC(=O)O [alprostadil], the “Outcome in large trials for ALI/ARDS” value (ALI/ARDS) is given as “failed”.
In the case of O=C(O)COCCN1CCN([C@H](c2ccccc2)c2ccc(Cl)cc2)CC1 [levocetirizine], the “Principal side effect experienced at higher doses” value ([2]; higher doses) is given as “Sedation”, the “Doses that can be safely administered” value ([2]; humans) is given as “up to 30 mg/day” and the Eosinophil migration (eosinophil migration) is given as “decrease”. For the same compound, the “Inflammatory mediators IL-4, IL-6, and IL-8” value [3] was “decrease”, the “ICAM-1, IL-6, IL-8, TLR3 expression and NF-kappa B activation” value ([3]; in vivo (so in the source)) was “decrease” and the “Rhinovirus-induced ICAM-1 and cytokine expression and viral replication” value (airway epithelial cells) was “inhibits”. The “Potency among the five modern generation antihistamines” value ([4]; histamine induced wheal and flare data) was “most potent”, the “Effectiveness compared with fexofenadine” value ([4]; levocetirizine 5 mg per day vs fexofenadine 180 mg per day) was “more effective” and the “Steady-state level (time to)” value [5] was 40 h. For the same compound, the “Enhanced receptor affinity over first generation mepyramine / first generation molecules” value (H1 receptor) was “up to 5 ×” and the “Enhanced receptor affinity over first generation mepyramine / first generation molecules” value (H1 receptor; listed as Levocetirizine) was 5 ×.
For CCOC(=O)C1=C[C@@H](OC(CC)CC)[C@H](NC(C)=O)[C@@H](N)C1 [oseltamivir], the “Influenza related lower respiratory tract complications” value (influenza) is given as “did not appear to reduce”.
For CC(=O)N[C@@H](CS)C(=O)O [N-acetylcysteine], the “Outcome in large trials for ALI/ARDS” value (ALI/ARDS) is given as “failed”.
